According to EP4722228A1, “NEW COMPOUND TARGETING MUSK AND USE THEREOF” (The University of Tokyo, priority 2023, dated 2024):
Bridge positions count the residues as written; N and C are the ends. Square brackets hold non-standard residues; d marks the D form. Peptide text beside a SMILES is read from it. I, II: the chains in the order shown. * marks the point of attachment. Palmitoyl = CCCCCCCCCCCCCCCC(=O)*; PEG3 = NCCOCCOCCOCCC(=O)O; Dap = NC[C@H](N)C(=O)O

Biological target: T1, human MuSK (Homo sapiens, UniProt O15146)
T1 construct: DNA corresponding to the extracellular portion (amino acids 1-493) was amplified by a PCR method; made in house; host or cells: Expi293F cells
T1 sequence (O15146 24-493): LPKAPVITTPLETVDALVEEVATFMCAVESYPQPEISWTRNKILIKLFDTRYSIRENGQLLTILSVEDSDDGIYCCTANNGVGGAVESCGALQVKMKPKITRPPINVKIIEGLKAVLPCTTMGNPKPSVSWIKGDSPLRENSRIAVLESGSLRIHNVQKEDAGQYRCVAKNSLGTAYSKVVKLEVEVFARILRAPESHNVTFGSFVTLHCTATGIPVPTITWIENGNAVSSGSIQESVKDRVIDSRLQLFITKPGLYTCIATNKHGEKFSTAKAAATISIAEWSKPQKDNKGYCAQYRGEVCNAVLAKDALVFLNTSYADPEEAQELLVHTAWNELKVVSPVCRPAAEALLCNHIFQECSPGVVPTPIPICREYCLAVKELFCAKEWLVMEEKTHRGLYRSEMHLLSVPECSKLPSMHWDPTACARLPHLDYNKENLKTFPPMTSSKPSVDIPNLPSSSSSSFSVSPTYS
Assay: SPR binding activity test to human MuSK (Biacore)
Details: Table 5, read-out: Binding activity (KD) (nM) Human
Outline: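 Extracellular domain (aa 1-493) of human MuSK, expressed as an Fc fusion in Expi293F cells, was captured on Protein G or A chips. Analytes were injected as concentration series in phosphate-buffered saline with 0.05% Tween 20, plus 0.1% DMSO for peptides. ka, kd and KD were obtained from 1:1 binding fits.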

SMILES: CCCCCCCCCCCCCCCC(=O)NCCCC[C@H](NC(=O)[C@H](CNC(=O)CCOCCOCCOCCNC(=O)CNC(=O)[C@@H]1CSCC(=O)N[C@H](Cc2ccc(O)cc2)C(=O)N2CCC[C@H]2C(=O)N[C@@H](CO)C(=O)N[C@@H](Cc2ccc(O)cc2)C(=O)N[C@@H](Cc2c[nH]cn2)C(=O)N[C@@H]([C@@H](C)O)C(=O)N[C@@H](CC(N)=O)C(=O)N[C@@H](C(C)C)C(=O)N[C@@H](C(C)C)C(=O)N[C@@H](C)C(=O)N[C@@H](CO)C(=O)N[C@@H](CC(C)C)C(=O)N[C@@H](CCCCN)C(=O)N[C@@H](CCCNC(=N)N)C(=O)N1)NC(=O)CCOCCOCCOCCNC(=O)CNC(=O)[C@@H]1CSCC(=O)N[C@H](Cc2ccc(O)cc2)C(=O)N2CCC[C@H]2C(=O)N[C@@H](CO)C(=O)N[C@@H](Cc2ccc(O)cc2)C(=O)N[C@@H](Cc2c[nH]cn2)C(=O)N[C@@H]([C@@H](C)O)C(=O)N[C@@H](CC(N)=O)C(=O)N[C@@H](C(C)C)C(=O)N[C@@H](C(C)C)C(=O)N[C@@H](C)C(=O)N[C@@H](CO)C(=O)N[C@@H](CC(C)C)C(=O)N[C@@H](CCCCN)C(=O)N[C@@H](CCCNC(=N)N)C(=O)N1)C(N)=O [MuSK7-pal] (I: {CH2CO}-[dY]PSYHTNVVASLKRCG[PEG3][Dap]K(Palmitoyl)-NH2 / II: {CH2CO}-[dY]PSYHTNVVASLKRCG[PEG3]; amide I:18-II:C; thioether I:N-I:15, II:N-II:15)
- Kd: 0.9 nM
